Data on 99 compounds can be found in PubChem BioAssay AID1398 (The Scripps Research Institute Molecular Screening Center, 2008).

In general, IC50 refers to the concentration needed to halve the response being measured.

The assay concerns the target Signal transducer and activator of transcription 3 (Homo sapiens) (UniProt P40763). As to the kind of experiment: STAT3 activation reporter response, dose response, cell-based (AID 1398).

Each structure is given as a SMILES string. Active and inactive are the calls of the source. How the calls were made is not given here. Bounds are passed on as bounds.

Take `COc1ccc(Cl)cc1NC(=O)c1oc(C)nc1C`: the IC50 is > 55.7 µM (inactive).
Consider `COc1ccccc1-c1nnc(SCC(=O)NC2CCCCC2)o1`, for which the IC50 was 1.87 µM.
With `O=c1c2ccccc2ncn1Cc1ccco1`, the IC50 was 5.66 µM.
In the case of `O=C(COc1ccccc1Cl)Nc1cc(Cl)ccc1O`, the IC50 was 0.571 µM.
On to `COCc1cc(=O)n2c(-c3ccccc3OC)n[nH]c2n1`, for which the IC50 was 0.821 µM.
Then `Cc1c(C(=O)NCc2cccnc2)oc2ccc(S(=O)(=O)N3CC(C)CC(C)C3)cc12` (centres undefined), with > 55.7 µM (inactive); and `CC(=O)N1N=C(c2ccccc2O)OC1(C)CC(=O)Nc1ccccc1` (centres undefined), with > 55.7 µM (inactive); and `Nc1ccccc1Sc1nc2ccccc2[nH]1`, with “inactive”.
Next, `O=C(C1CCCN(S(=O)(=O)c2cccc3cccnc23)C1)N1CCc2ccccc21` (centres undefined): > 55.7 µM (inactive); `O=C(O)C(Cc1c[nH]c2ccccc12)N1Cc2ccccc2C1=O` (centres undefined): “inactive”; `CN1C(=O)c2ccccc2C(C(=O)NCCCN2CCCC2=O)C1c1c[nH]c2ccccc12` (centres undefined): > 55.7 µM (inactive).
Next, `CN1CCN(CCCNC(=O)c2cc3c(-c4ccc(Cl)cc4)nn(C)c3s2)CC1`: 3.78 µM; `CCOc1ccccc1C1CC(c2cccs2)=NN1S(C)(=O)=O` (centres undefined): > 55.7 µM (inactive); `CC(OC(=O)c1cccnc1SCc1cc(=O)n2ccccc2n1)c1ccccn1` (centres undefined): > 6.19 µM (inactive).
For the compound `CC(=O)NCCC(=O)N1CCc2c([nH]c3ccccc23)C1c1cccc(C)c1` (centres undefined), the IC50 is 2.5 µM.
Next, `CC(=O)NCCC(=O)N1CCc2c([nH]c3ccccc23)C1c1cccc(Cl)c1` (centres undefined): > 55.7 µM (inactive); `COc1ccc(CN2CCN(S(=O)(=O)c3ccc(C)cc3)CC2)cc1Br`: 6.13 µM; `CC1CCN(C(=O)Cn2c(=O)n(CCc3ccccc3)c(=O)c3ccccc32)CC1`: > 55.7 µM (inactive).
Next, `CCOc1ccccc1-c1n[nH]c(=S)o1`: 0.521 µM.
Then `CN1C(=O)/C(=C\c2cc(Br)cs2)c2ccccc21`, with 0.635 µM.
As for `Cc1nc2ccccc2cc1O`, the IC50 was 3.4 µM.
In the case of `N#Cc1cn(CC(=O)O)c2ccccc12`, the IC50 was 9.78 µM.
For `NNc1ncnc2sc3c(c12)CCC3`, the IC50 was > 55.7 µM (inactive).
Then `Cc1c(C#N)c2ccccc2n1CC(=O)O`, with 5.09 µM; and `CCOc1cc(-c2ccc(N)c(OCC)c2)ccc1N`, with > 55.7 µM (inactive); and `COc1cccc2sc(Nc3nnc(-c4ccc(F)cc4)o3)nc12`, with > 0.688 µM (inactive).
On to `CC(=O)n1cc(Nc2ccc([N+](=O)[O-])cc2)c2ccccc21`, for which the IC50 was > 55.7 µM (inactive).
Next, `COC(=O)c1sccc1NC(=O)c1ccc(Br)s1`: > 18.6 µM (inactive); `Cc1cc(-c2ccc(Cl)cc2)c(C#N)c(N)n1`: 5.9 µM; `O=C(CN1CCNCC1)Nc1ccc(Oc2ccccc2)cc1`: > 55.7 µM (inactive).
Then `COc1ccc(Cl)cc1NC(=O)Nc1ccc(Br)cn1`, with > 55.7 µM (inactive); and `Cc1cccc2c1NC(=O)/C2=C\C(=O)c1cccs1`, with > 18.6 µM (inactive); and `COCCSc1ccccc1C(=O)NCCc1ccccc1`, with > 55.7 µM (inactive).
Then `COc1ccc(C2c3[nH]c4ccccc4c3CCN2C(=O)c2cc3ncccn3n2)c(F)c1` (centres undefined), with 5.23 µM; and `CC1Cc2ccccc2N1Cc1cc(=O)n2ccsc2n1` (centres undefined), with “inactive”.
Take `CC(C)CC(=O)NC(=S)Nc1nc(-c2ccccc2)cs1`: the IC50 is 0.468 µM.
For `COC(=O)c1n[nH]c2ccccc12`, the IC50 was 3.33 µM.
Turning to `O=C(CCc1nnc(Cc2ccc3c(c2)OCO3)o1)NCc1nc2ccccc2s1`, the IC50 is 2.85 µM.
As to `CCN(CC)S(=O)(=O)c1ccc(-c2nnc3sc4cccc(C)c4n23)cc1`, the IC50 was > 55.7 µM (inactive).
Next, `COC(=O)NNC(=O)c1ccccc1OC`: 6.03 µM; `O=C(Cc1cccs1)Nc1ccccn1`: 8.06 µM.
For `CC1=C(C)C(=O)C(N2CCOCC2)=CC1=O`, the IC50 result was “inactive”.
Then `COc1cc(NC(=O)c2cc(-c3ccco3)on2)c(OC)cc1Cl`, with 1.71 µM; and `Cc1ccc(CC(=O)Nc2nc3c(s2)CCCC3)cc1`, with > 55.7 µM (inactive).
For `COc1ccc(NC(=O)N2CCn3c2nc2ccccc23)cc1`, the IC50 is > 55.7 µM (inactive).
In the case of `COc1ccc(Br)cc1C(=O)Nc1cccc(C)c1`, the IC50 result was “inactive”.
Then `Cc1ccccc1C1c2[nH]c3ccccc3c2CCN1C(=O)c1ccc(=O)n(C)n1` (centres undefined), with 4.19 µM; and `Cc1nc(/N=C(\N)Nc2ccccc2)nc2ccccc12`, with 2.11 µM; and `O=C(Nc1nnc(-c2ccccc2Cl)o1)c1nc2ccccc2s1`, with > 55.7 µM (inactive).
Then `COc1ccc(Cl)cc1-c1nc(-c2ccc(Br)o2)no1`, with 8.51 µM.
Next, `O=C(O)C1CC=CCC1C(=O)Nc1ccc(S(=O)(=O)N2CCCc3ccccc32)cc1` (centres undefined): 5.67 µM; `CCCc1nnc(N2C(=O)c3cccc4cccc(c34)C2=O)s1`: > 55.7 µM (inactive).
Consider `CCOC(=O)C1(CC2CCCCO2)CCN(Cc2cc3ccccc3[nH]2)CC1` (centres undefined), for which the IC50 was > 55.7 µM (inactive).
For `CC1=NN(c2ccccc2)C(=O)/C1=C/c1c(O)[nH]c(=O)[nH]c1=O`, the IC50 was > 55.7 µM (inactive).
Next, `COc1ccc(-c2nc3scc(-c4ccccc4)n3n2)cc1`: 5.79 µM; `O=C(c1cc[n+]([O-])cc1)N1CCc2c([nH]c3ccccc23)C1c1ccccc1Cl` (centres undefined): 8.29 µM; `O=C(Cc1c[nH]c2ccccc12)Nc1nc2ccccc2[nH]1`: 4.98 µM.
Then `CC(C)CC1c2[nH]c3ccccc3c2CCN1C(=O)CCC(=O)N(C)C` (centres undefined), with > 6.19 µM (inactive).
Then `COCCCNc1nc2c(-c3cccc(C(F)(F)F)c3)nnn2c2ccccc12`, with > 55.7 µM (inactive); and `O=C(Cc1cnc2ncnn2c1)N1CCc2c([nH]c3ccccc23)C1c1ccccc1F` (centres undefined), with “inactive”; and `COc1ccc(S(=O)(=O)Nc2nc3ccccc3s2)cc1OC`, with “inactive”.
For the compound `CN1N=C(C(=O)N2CCc3c([nH]c4ccccc34)C2c2c(F)cccc2Cl)CCC1=O` (centres undefined), the IC50 is 4.82 µM.
Next, `Cn1nc(-c2ccc(Cl)cc2)c2cc(C(=O)NCC3CCCO3)sc21` (centres undefined): > 6.19 µM (inactive); `COCCNC(=O)C(=O)NNC(=O)c1ccccc1OC`: “inactive”; `CCc1cc2c(NCCC(=O)O)nc(C)nc2s1`: > 55.7 µM (inactive).
`CN(C)C(CN1C(=O)C2CC=CCC2C1=O)c1cn(C)c2ccccc12` (centres undefined): the IC50 was > 55.7 µM (inactive).
Then `COc1ccc(C)cc1NC(=O)c1[nH]c(C)c(C(C)=O)c1C`, with “inactive”.
Next, `CCOC(=O)CC1C(=O)NCCN1C(=O)c1cc2c(=O)n3cccc(C)c3nc2s1` (centres undefined): > 55.7 µM (inactive); `COc1cccc(-c2nc(N3CCCCC3C)c3ccccc3n2)c1O` (centres undefined): > 55.7 µM (inactive).
`CCCNC(=O)Cn1c2ccccc2c2nc(=O)cc(C)n21`: the IC50 is 3.33 µM.
As to `CN(Cc1ccccc1)Cc1c[nH]c2ccccc12`, the IC50 was > 55.7 µM (inactive).
Then `Cc1nc2c(n1C1CCCCC1)C(=O)c1ccccc1C2=O`, with 5.8 µM; and `O=C(c1cccnc1)N1CCc2ccccc21`, with 8.13 µM; and `COCc1cc(C)nc2sc(C(=O)NN)c(-n3cccc3)c12`, with “inactive”.
Consider `CCOC(=O)c1sc(NCc2ccco2)c(-c2nc3ccccc3s2)c1N`, for which the IC50 was 9.76 µM.
For the compound `CCOc1ccccc1CN1CCN(Cc2cc3ccccc3[nH]2)CC1CCO` (centres undefined), the IC50 is > 55.7 µM (inactive).
With `CCn1c(C(=O)Nc2ccsc2C(=O)OC)cc2sc(Cl)cc21`, the IC50 was > 55.7 µM (inactive).
Next, `CCC(C(=O)Nc1ccccc1OC)n1c(C(=O)OC)cc2ccsc21` (centres undefined): 2.02 µM.
Next, `CCCN(CCC)C(=O)Cn1c2ccccc2c2nc(=O)cc(C)n21`: 0.174 µM; `CCOc1ccc(CN2CCN(Cc3cc4ccccc4[nH]3)CC2CCO)cc1` (centres undefined): 0.644 µM.
Then `Cc1nnc(NC(=O)c2oc3c(ccc4ccccc43)c2C)s1`, with > 0.619 µM (inactive); and `O=C(CCCSc1nc2ccccc2s1)NCc1ccco1`, with “inactive”.
Take `COc1ccc(-c2nnc(Nc3nc4c(OC)cccc4s3)o2)cc1`: the IC50 is > 55.7 µM (inactive).
For `CCN1CCN(C(=O)c2cc3c(-c4ccc(Cl)cc4)nn(C)c3s2)CC1`, the IC50 was > 55.7 µM (inactive).
Then `NC(=O)CSc1c[nH]c2ccccc12`, with “inactive”; and `Cn1nc(-c2ccc(Cl)cc2)c2cc(C(=O)NCCN3CCOCC3)sc21`, with 6.88 µM.
In the case of `O=C(CCN1CCOCC1)N1CCc2c([nH]c3ccccc23)C1c1cccc(Cl)c1` (centres undefined), the IC50 is 7.41 µM.
Then `Cc1noc(/C=C/N(C)C)c1S(=O)(=O)N1CCc2ccccc21`, with “inactive”; and `c1ccc2c(c1)CCCN2c1nc2ccccc2n2cnnc12`, with 1.36 µM.
Consider `COc1ccccc1C(=O)NNC(=S)Nc1ccccc1`, for which the IC50 is > 0.229 µM (inactive).
For the compound `CN(C)C(=O)COC(=O)/C=C/c1ccccc1[N+](=O)[O-]`, the IC50 was 7.75 µM.
Next, `CCC(=O)NCCSc1c[nH]c2ccccc12`: “inactive”; `O=C(Nc1ccccc1O)c1csc2c1CCCC2`: 2.44 µM; `COc1ccccc1C(=O)NNC(=O)c1ccc(NC(=O)C(C)C)cc1`: 1.3 µM.
Consider `COCCNC(=O)c1cc2c(-c3ccc(Cl)cc3)nn(C)c2s1`, for which the IC50 was > 55.7 µM (inactive).
Consider `COCCCNC(=O)c1cc2c(-c3ccc(Cl)cc3)nn(C)c2s1`, for which the IC50 is > 55.7 µM (inactive).
Consider `O=C(Cc1c[nH]c2ccccc12)Nc1nnc(C2CC2)s1`, for which the IC50 was 2.98 µM.
Then `Cc1nn(-c2ccc(Cl)cc2)c(N)c1C(O)(CSc1nccn1C)C(F)(F)F` (centres undefined), with > 55.7 µM (inactive); and `c1ccc2c(CNC3CCCCCC3)c[nH]c2c1`, with > 55.7 µM (inactive).
